Read-outs that look alike come from different tables or passages of the source.
Key:
[1] = Pharmacokinetics test in beagle dogs; format: in vivo; conditions: for AUC(0-inf) / Cmax / Tmax / half-life / AUC(0-t): dog, plasma, po, capsule by gavage; for AUC(0-t): read-out: AUC0-24 h
Method: The pharmacokinetic properties of amorphous Compound (I) or the crystalline form A of Compound (I) disclosed herein are assessed in beagle dogs. The LC/MS/MS system used in the analysis consists of an Agilent 1200 Series vacuum degasser, binary pump, well-plate autosampler, thermostatted column compartment, the Agilent G6430 Triple Quadrupole Mass Spectrometer with an electrosprayionization (ESI) source. Quantitative analysis was carried out using MRM mode. The parameters for MRM transitions are in the Table A.
An Agilent XDB-C18, 2.1×30 mm, 3.5 μM column was used for the analysis. 5 μL of the samples were injected. Analysis condition: The mobile phase was 0.1% formic acid in water (A) and 0.1% formic acid in methanol (B). The flow rate was 0.4 mL/min. And the gradient of Mobile phase was in the Table B.
Alternatively, an Agilent 6330 series LC/MS/MS spectrometer equipped with G1312A binary pumps, a G1367A autosampler and a G1314C UV detector were used in the analysis. An ESI source was used on the LC/MS/MS spectrometer. The analysis was done in positive ion mode as appropriate and the MRM transition for each analyte was optimized using standard solution. A Capcell MP-C18 100×4.6 mm I.D., […] column (Phenomenex, Torrance, Calif., USA) was used during the analysis. The mobile phase was 5 mM ammonia acetate, 0.1% MeOH in water (A): 5 mM ammonia acetate, 0.1% MeOH in acetonitrile (B) (70/30, v/v). The flow rate was 0.6 mL/min. Column was maintained at ambient temperature. 20 μL of the samples were injected.
[…] The blood samples (0.3 mL) were drawn at 0.25, 0.5, 1.0, 2.0, 3.0, 4.0, 6.0, 8.0, 12 and 24 hour time points or 0.083, 0.25, 0.5, 1.0, 2.0, 4.0, 6.0, 8.0 and 24 hour time points and centrifuged at 3,000 or 4000 rpm for 2 to 10 min. The plasma solutions were collected, and analyzed by LC/MS/MS as described above. The pharmacokinetic parameters were calculated according to non-compartment model using WinNonlin procedure.

[2] = Stability test (impurity contents by HPLC); format: physicochemical; conditions: for The impurity contents: HPLC; for Increase of the impurity contents: illuminating the samples for 10 days
Method: A sample of crystalline form A of compound (I) (100˜200 mg) was placed on a watching glass in the form of a thin layer (thickness ≤5 mm). The samples were exposed to the following conditions: high temperature (60±2° C.) for 10 days; high humidity (25±2° C., 90%±5% relative humidity) for 10 days; illumination condition (visible light 4500 lx±500 lx with ultraviolet light not lower than 0.7 W·h/m^2, 25±2° C., 60%±5% relative humidity) for 10 days; and room temperature (30±2° C., 65%±5% relative humidity) for 10 days, respectively. The impurity contents in the samples were determined at different time points (0, 5 and 10 days) by high performance liquid chromatography (HPLC), and the absorption peaks were normalized relative to the highest peak (corresponds to compound I) which is set to 100%.

Hygroscopicity test = format: physicochemical; conditions: p-toluenesulfonate; for Hygroscopicity (conclusion in words): from Table 6; for Hygroscopic capacity: 25±1° C.
Method: A glass weighing bottle equipped with a stopper was tarred and the weight was recorded as m1. Compound (I) in crystalline form A or amorphous form (about 1.0 g) was placed in the tared weighing bottle and capped with the stopper. The total weight was then recorded as m2. […] The weighing bottle capped with its stopper was weighed on day 5 and day 10 and the weight was recorded as m3.

[3] = dose 9.7 mg/kg, grain size D90 32 μm
[4] = high humidity (25±2° C., 90%±5% relative humidity), 0 day, p-toluenesulfonate
[5] = high humidity (25±2° C., 90%±5% relative humidity), 5 days, p-toluenesulfonate
[6] = high humidity (25±2° C., 90%±5% relative humidity), 10 days, p-toluenesulfonate
[7] = high temperature (60±2° C.), 0 day, p-toluenesulfonate
[8] = high temperature (60±2° C.), 5 days, p-toluenesulfonate
[9] = high temperature (60±2° C.), 10 days, p-toluenesulfonate
[10] = illuminating condition (visible light 4500 lx±500 lx with UV, 25±2° C., 60%±5% RH), 0 day, p-toluenesulfonate
[11] = illuminating condition (visible light 4500 lx±500 lx with UV, 25±2° C., 60%±5% RH), 5 days, p-toluenesulfonate
[12] = illuminating condition (visible light 4500 lx±500 lx with UV, 25±2° C., 60%±5% RH), 10 days, p-toluenesulfonate
[13] = room temperature (30±2° C., 65%±5% relative humidity), 0 day, p-toluenesulfonate
[14] = dose 10 mg/kg, grain size D90 22 μm

Compound: Cc1c(C(=O)Nc2ccc(Oc3ccnc4cc(OCC(C)(C)O)ccc34)c(F)c2)c(=O)n(-c2ccccc2)n1C.Cc1ccc(S(=O)(=O)O)cc1 [Amorphous, N-(3-fluoro-4-((7-(2-hydroxy-2-methylpropoxy)quinolin-4-yl)oxy)phenyl)-1,5-dimethyl-3-oxo-2-phenyl-2,3-dihydro-1H-pyrazole-4-carboxamide p-toluenesulfonate]
- AUC(0-inf) [1, 3]: 55300 ng·h/mL
- Cmax [1, 3]: 2640 ng/mL
- Tmax [1, 3]: 3.33 h
- half-life [1, 3]: 15 h
- AUC(0-t) [1, 3]: 37300 ng·h/mL
- The impurity contents [2, 4]: 0.14%
- The impurity contents [2, 5]: 0.11%
- The impurity contents [2, 6]: 0.07%
- The impurity contents [2, 7]: 0.14%
- The impurity contents [2, 8]: 0.13%
- The impurity contents [2, 9]: 0.10%
- The impurity contents [2, 10]: 0.14%
- The impurity contents [2, 11]: 0.36%
- The impurity contents [2, 12]: 0.56%
- Increase of the impurity contents ([2]; listed as amorphous Compound (I), p-toluenesulfonate): 0.42%
- The impurity contents [2, 13]: 0.14%
- The impurity contents ([2]; room temperature (30±2° C., 65%±5% relative humidity), 5 days): 0.07%
- The impurity contents ([2]; room temperature (30±2° C., 65%±5% relative humidity), 10 days): 0.07%
- Hygroscopicity (conclusion in words) (Hygroscopicity test; listed as amorphous Compound (I)): hygroscopic
- Hygroscopic capacity (Hygroscopicity test; standing time 5 d): 7.74%
- Hygroscopic capacity (Hygroscopicity test; standing time 10 d): 8.48%

Compound: Cc1c(C(=O)Nc2ccc(Oc3ccnc4cc(OCC(C)(C)O)ccc34)c(F)c2)c(=O)n(-c2ccccc2)n1C.Cc1ccc(S(=O)(=O)O)cc1 [Form A, N-(3-fluoro-4-((7-(2-hydroxy-2-methylpropoxy)quinolin-4-yl)oxy)phenyl)-1,5-dimethyl-3-oxo-2-phenyl-2,3-dihydro-1H-pyrazole-4-carboxamide p-toluenesulfonate]
- Exposure and bioavailability in vivo (conclusion in words) ([1]; Cmax, AUC0-24h and AUC0-∞ compared with amorphous Compound (I)): good exposure and bioavailability
- AUC(0-inf) [1, 14]: 180000 ng·h/mL
- Cmax [1, 14]: 6190 ng/mL
- Tmax [1, 14]: 4 h
- half-life [1, 14]: 25 h
- AUC(0-t) [1, 14]: 131000 ng·h/mL
- The impurity contents [2, 4]: 0.35%
- The impurity contents [2, 5]: 0.37%
- The impurity contents [2, 6]: 0.39%
- The impurity contents [2, 7]: 0.35%
- The impurity contents [2, 8]: 0.37%
- The impurity contents [2, 9]: 0.37%
- The impurity contents [2, 10]: 0.35%
- The impurity contents [2, 11]: 0.38%
- The impurity contents [2, 12]: 0.48%
- Increase of the impurity contents ([2]; listed as crystalline form A of Compound (I), p-toluenesulfonate): 0.13%
- The impurity contents [2, 13]: 0.35%
- Hygroscopicity (conclusion in words) (Hygroscopicity test; listed as crystalline form A of compound (I)): not hygroscopic
- Hygroscopic capacity (Hygroscopicity test; standing time 5 d): 0.03%
- Hygroscopic capacity (Hygroscopicity test; standing time 10 d): 0.12%

— patent US9920033B2, “Crystalline form of a substituted quinoline compound and pharmaceutical compositions thereof” (Sunshine Lake Pharma Co., Ltd., priority 2015, dated 2018)
